In paper PMC7311426, “An amphipathic peptide with antibiotic activity against multidrug-resistant Gram-negative bacteria” (Nature Communications, 2020):
Residues, ends and D or L forms follow the SMILES beside them.

What was measured:
C. neoformans = experiment: microbe, parasite or virus in culture
in vivo = details: for level at 4 h / level at 8 h / level at 0.5 h / level at 1 h / level at 3 h / level at 12 h: Cross species PK, concentration (Fig 6 source data)
Experimental: The studies were performed at Fidelta Ltd, Croatia (mice), under review by the institutional ethics committee (CARE-Zg), and Covance Laboratories UK and Muenster Germany (cynomolgus monkey and minipig) in accordance with the requirements of the Animals (Scientific Procedures) Act 1989 and a maintained local ethical review. All studies were contracted by Adenium Biotech ApS. Mice were housed in polysulfone cages with an acclimatization period of 7 days prior to experiments with air temperature maintained at 22 °C with 55% humidity and light–dark cycles of 12 h light. Cynomolgus monkeys of age range 4–7 years were selected, tested for health, acclimatized for 2 weeks, and housed in single-animal climate controlled stainless-steel cages with a minimum of 8 air changes per hour with air temperature at 19–25 °C and relative humidity 40–70%, and light–dark cycles of 12 h light. Minipigs of age range 4–6 months were selected, tested for health, acclimatized for 2 weeks, and housed in single-animal pens with 15–20 air changes per hour with air temperature at 22–26 °C with light–dark cycles of 12 h light.
Mouse, monkey, and minipig i.v. 2-h infusion: AA139 formulated in Ringer’s acetate was administered intravenously to CD1 mice, cynomolgus monkeys (Macaca fascicularis) and Göttingen A/S minipigs (Ellegaard Göttingen, Denmark) by continuous infusion over 2 h (minipig under anesthesia). Individual dose volumes were based on individual body weight. Blood samples were collected at 0.5, 1, 2, 3, 4, 8, 10, and 12 h after the start of the infusion (n = 6 mice, male and female combined; n = 2 monkeys, one male and one female; n = 2 minipigs, one male and one female). Bioanalytical analysis was performed by SPE followed by LC–MS/MS. The method was validated for an AA139 concentration range of 43.4–21,700 ng mL^−1. Pharmacokinetic parameters were calculated by standard non-compartmental analysis (NCA) using Phoenix WinNonlin version 6.2. The studies were conducted in compliance with Good Laboratory Practice (GLP) regulations.

E. coli = E. coli MDR/ESBL; after 20 passages + 3 drug-free passages
[1] = 7-day DRF inhalation toxicity; details: for AUC(0-t) / Cmax: Mouse inhalation, TK dose 20 mg/kg
E. coli DSA 443 ESBL = experiment: Murine urinary tract infection (UTI) model; assay type: in vivo, E. coli in OF-1 mice; details: for Day 3 Bladder, Mean Diff. Vehicle vs. Meropenem 40 mg/kg / Day 3 Urine, Mean Diff. Vehicle vs. Meropenem 40 mg/kg: Dunnett's multiple comparisons test; for Day 3 Urine, Mean 2 (group mean) / Mean Diff., Vehicle vs. treated / Mean 2 (group mean bacterial count): Meropenem 40 mg/kg; for Day 3 Urine, Mean 2 (group mean): n2 = 8; for Mean Diff., Vehicle vs. treated / Mean 2 (group mean bacterial count): UTI model, Day 3 Kidneys
[2] = Göttingen, minipig, in vivo, iv, minipig 2h i.v. infusion, replicate 1
[3] = Göttingen, minipig, in vivo, iv, minipig 2h i.v. infusion, replicate 2
[4] = both, Göttingen, minipig, in vivo, iv, 10 mg kg-1
[5] = both, cynomolgus monkey, in vivo, iv, 10 mg kg-1
[6] = cynomolgus monkey, in vivo, iv, monkey 2h i.v. infusion, replicate 1
[7] = cynomolgus monkey, in vivo, iv, monkey 2h i.v. infusion, replicate 2
[8] = cynomolgus monkey, in vivo, iv, monkey 2h i.v. infusion, replicate 3
[9] = cynomolgus monkey, in vivo, iv, monkey 2h i.v. infusion, replicate 4

CC(C)[C@@H]1NC(=O)[C@H](Cc2ccc(O)cc2)NC(=O)[C@H](Cc2c[nH]c3ccccc23)NC(=O)[C@@H](NC(=O)[C@H](Cc2ccccc2)NC(=O)CN)CSSC[C@@H](C(=O)N[C@@H](CC(N)=O)C(=O)O)NC(=O)[C@H](CCCNC(=N)N)NC(=O)[C@H](CCCNC(=N)N)NC(=O)[C@H](Cc2ccc(O)cc2)NC(=O)[C@@H]2CSSC[C@H](NC1=O)C(=O)N[C@@H](C)C(=O)N[C@@H](CCCNC(=N)N)C(=O)N[C@@H](CCCNC(=N)N)C(=O)N[C@@H](CC(N)=O)C(=O)NCC(=O)N[C@@H](C)C(=O)N[C@@H](CCCNC(=N)N)C(=O)N[C@@H](C(C)C)C(=O)N2 [AA139] (HELM PEPTIDE1{G.F.C.W.Y.V.C.A.R.R.N.G.A.R.V.C.Y.R.R.C.N}$PEPTIDE1,PEPTIDE1,3:R3-20:R3|PEPTIDE1,PEPTIDE1,7:R3-16:R3$$$V2.0)
BMD MIC (C. neoformans): 1 µg/mL
MIC against Cryptococcus neoformans (C. neoformans): 1 to 4 µg/mL
level at 4 h (in vivo; [2]): 2850 ng/mL
level at 4 h (in vivo; [3]): 3110 ng/mL
level at 8 h (in vivo; [2]): 1510 ng/mL
level at 8 h (in vivo; [3]): 1240 ng/mL
Vd (in vivo; [4]): 1.2 L/kg
half-life (in vivo; [4]): 3.1 h
level at 0.5 h (in vivo; both, Göttingen, minipig, in vivo, iv, minipig 2h i.v. infusion, time 0.5 h, replicate 1): 4830 ng/mL
level at 1 h (in vivo; both, Göttingen, minipig, in vivo, iv, minipig 2h i.v. infusion, time 1 h, replicate 2): 6780 ng/mL
level at 3 h (in vivo; both, Göttingen, minipig, in vivo, iv, minipig 2h i.v. infusion, replicate 1): 4100 ng/mL
level at 3 h (in vivo; both, Göttingen, minipig, in vivo, iv, minipig 2h i.v. infusion, replicate 2): 5080 ng/mL
AUC(0-inf) (in vivo; [5]): 40800 ng·h/mL
Vd (in vivo; [5]): 0.87 L/kg
half-life (in vivo; [5]): 2.4 h
level at 0.5 h (in vivo; both, cynomolgus monkey, in vivo, iv, monkey 2h i.v. infusion, time 0.5 h, replicate 2): 6540 ng/mL
level at 0.5 h (in vivo; both, cynomolgus monkey, in vivo, iv, monkey 2h i.v. infusion, time 0.5 h, replicate 3): 7630 ng/mL
level at 0.5 h (in vivo; both, cynomolgus monkey, in vivo, iv, monkey 2h i.v. infusion, time 0.5 h, replicate 4): 13500 ng/mL
level at 1 h (in vivo; both, cynomolgus monkey, in vivo, iv, monkey 2h i.v. infusion, time 1 h, replicate 1): 9000 ng/mL
level at 1 h (in vivo; both, cynomolgus monkey, in vivo, iv, monkey 2h i.v. infusion, time 1 h, replicate 2): 9340 ng/mL
level at 1 h (in vivo; both, cynomolgus monkey, in vivo, iv, monkey 2h i.v. infusion, time 1 h, replicate 3): 8480 ng/mL
level at 3 h (in vivo; both, cynomolgus monkey, in vivo, iv, monkey 2h i.v. infusion, replicate 1): 5390 ng/mL
level at 3 h (in vivo; both, cynomolgus monkey, in vivo, iv, monkey 2h i.v. infusion, replicate 2): 5440 ng/mL
level at 3 h (in vivo; both, cynomolgus monkey, in vivo, iv, monkey 2h i.v. infusion, replicate 3): 4440 ng/mL
level at 3 h (in vivo; both, cynomolgus monkey, in vivo, iv, monkey 2h i.v. infusion, replicate 4): 6120 ng/mL
level at 4 h (in vivo; [6]): 3590 ng/mL
level at 4 h (in vivo; [7]): 3930 ng/mL
level at 4 h (in vivo; [8]): 2240 ng/mL
level at 4 h (in vivo; [9]): 2830 ng/mL
level at 8 h (in vivo; [6]): 1270 ng/mL
level at 8 h (in vivo; [7]): 1290 ng/mL
level at 8 h (in vivo; [8]): 2720 ng/mL
level at 8 h (in vivo; [9]): 2460 ng/mL
level at 12 h (in vivo; [8]): 860 ng/mL
level at 12 h (in vivo; [9]): 802 ng/mL
Cross species PK, concentration (Fig 6 source data) (in vivo; minipig 2h i.v. infusion, time 0.5 h, replicate 2): 6298
Cross species PK, concentration (Fig 6 source data) (in vivo; minipig 2h i.v. infusion, time 1 h, replicate 1): 4846
Cross species PK, concentration (Fig 6 source data) (in vivo; minipig 2h i.v. infusion, time 2 h, replicate 1): 7751
Cross species PK, concentration (Fig 6 source data) (in vivo; minipig 2h i.v. infusion, time 2 h, replicate 2): 9612
Cross species PK, concentration (Fig 6 source data) (in vivo; monkey 2h i.v. infusion, time 0.5 h, replicate 1): 6780
Cross species PK, concentration (Fig 6 source data) (in vivo; monkey 2h i.v. infusion, time 1 h, replicate 4): 15900
Cross species PK, concentration (Fig 6 source data) (in vivo; monkey 2h i.v. infusion, time 2 h, replicate 1): 8610
Cross species PK, concentration (Fig 6 source data) (in vivo; monkey 2h i.v. infusion, time 2 h, replicate 2): 11100
Cross species PK, concentration (Fig 6 source data) (in vivo; monkey 2h i.v. infusion, time 2 h, replicate 3): 21300
Cross species PK, concentration (Fig 6 source data) (in vivo; monkey 2h i.v. infusion, time 2 h, replicate 4): 6780
Final MIC (E. coli): 1 µg/mL
AUC(0-t) ([1]; Day 1 ELF): 39800 ng·h/mL
Cmax ([1]; Day 1 ELF): 8200 ng/mL
AUC(0-t) ([1]; Day 7 ELF): 137000 ng·h/mL
Cmax ([1]; Day 7 ELF): 42400 ng/mL
NOAEL in mice, aerosol inhalation ([1]; aerosol inhalation over 7 days): 20 mg kg^−1 per day
NOAEL at 168 h ([1]; mouse, in vivo, inhaled or intranasal): 20 mg/kg
AUC(0-t) ([1]; mouse, plasma, inhaled or intranasal, 20 mg/kg, AUC 0-t, Day 1 Plasma): 2600 ng·h/mL
AUC(0-t) ([1]; mouse, plasma, inhaled or intranasal, 20 mg/kg, AUC 0-t, Day 7 Plasma): 1400 ng·h/mL
Cmax ([1]; mouse, plasma, inhaled or intranasal, 20 mg/kg, Cmax, Day 1 Plasma): 950 ng/mL
Cmax ([1]; mouse, plasma, inhaled or intranasal, 20 mg/kg, Cmax, Day 7 Plasma): 470 ng/mL

C[C@@H](O)[C@H]1C(=O)N2C(C(=O)O)=C(S[C@@H]3CN[C@H](C(=O)N(C)C)C3)[C@H](C)[C@H]12 [Meropenem, meropenem, reference compound]
Day 3 Bladder, Mean Diff. Vehicle vs. Meropenem 40 mg/kg (E. coli DSA 443 ESBL; Arenicin-3 study): 2.654
Day 3 Urine, Mean Diff. Vehicle vs. Meropenem 40 mg/kg (E. coli DSA 443 ESBL; Arenicin-3 study): 5.07
DAY 3 BLADDER, Mean (E. coli DSA 443 ESBL; ESBL E. coli DSA 443, Meropenem 40 mg kg-1, bladder, day 3, Prism column statistics, mean of n = 12): 3.523
Day 3 Urine, Mean 2 (group mean) (E. coli DSA 443 ESBL; Arenicin-3 study): 1.314
Day 3 Urine, Mean 2 (group mean) (E. coli DSA 443 ESBL; NZ17143 study): 1.812
Day 3 Urine, Mean 2 (group mean) (E. coli DSA 443 ESBL; NZ17211 study): 1.325
Day 3 Bladder, Mean Diff. Vehicle vs. Meropenem 40 mg/kg (E. coli DSA 443 ESBL; NZ17143 study): 2.624
Day 3 Urine, Mean Diff. Vehicle vs. Meropenem 40 mg/kg (E. coli DSA 443 ESBL; NZ17143 study): 4.004
Day 3 Bladder, Mean Diff. Vehicle vs. Meropenem 40 mg/kg (E. coli DSA 443 ESBL; NZ17211 study): 4.176
Day 3 Urine, Mean Diff. Vehicle vs. Meropenem 40 mg/kg (E. coli DSA 443 ESBL; NZ17211 study): 5.546
Mean Diff., Vehicle vs. treated (E. coli DSA 443 ESBL; Arenicin-3 experiment): 0.4699
Mean Diff., Vehicle vs. treated (E. coli DSA 443 ESBL; NZ17143 experiment): 0.6355
Mean Diff., Vehicle vs. treated (E. coli DSA 443 ESBL; NZ17211 experiment): 0.1396
Mean 2 (group mean bacterial count) (E. coli DSA 443 ESBL; comparator arm of Arenicin-3 experiment): 2.023
Mean 2 (group mean bacterial count) (E. coli DSA 443 ESBL; comparator arm of NZ17143 experiment): 1.446
Mean 2 (group mean bacterial count) (E. coli DSA 443 ESBL; comparator arm of NZ17211 experiment): 2.631
